Consider 18 compounds from PubChem BioAssay (NCI).

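Values below derive from 48-hour exposures of cells grown in 96-well plates, with endpoints linearly interpolated between the two concentrations bracketing the appropriate inhibition level. GI50: concentration for 50% inhibition of growth. TGI: total growth inhibition.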 Some results are limits rather than exact numbers.

Some test systems named below: COLO 205 colon; IGROV1 ovarian; K-562 leukemia; SF-539 CNS; HT29 colon; LOX IMVI melanoma; MDA-MB-231 breast; NCI-H226 lung.
Holding throughout (experiment): NCI-60 cell line screen, 48 h

`COc1cc(Nc2nc3cc(C(F)(F)F)ccc3n3cccc23)cc(OC)c1OC`: the TGI in the test on COLO 205 colon, with IGROV1 ovarian, in the test with K-562 leukemia and in the test on SF-539 CNS was more than 100 µM in each case.
On to `Cc1cc2c(cc1C)[n+](=O)c(C(=O)c1ccccc1)c(C(F)(F)F)n2[O-]`, for which the TGI in the test with COLO 205 colon was 2.95 µM; with HT29 colon, 9.11 µM; with IGROV1 ovarian it was 4.02 µM; in the test on K-562 leukemia, 9.14 µM; with LOX IMVI melanoma, 7.58 µM; in the test with MDA-MB-231 breast, 6.55 µM. Also, the TGI in the test with SF-539 CNS was more than 35.1 µM.
Consider `CCCCNc1nc(NC2OCC(OC(C)=O)C(OC(C)=O)C2OC(C)=O)c(N=O)c(=O)n1C` (configuration not stated), for which the TGI in the test with COLO 205 colon, with HT29 colon, in the test with IGROV1 ovarian, in the test with LOX IMVI melanoma, with MDA-MB-231 breast and in the test on NCI-H226 lung was more than 10 µM throughout. This compound also returned a TGI in the test on SF-539 CNS of more than 10 µM.
Turning to `COc1cccc(C2c3cc4c(cc3OC3COC(=O)C32)OCO4)c1OC` (configuration not stated), the TGI with COLO 205 colon, with HT29 colon, in the test with IGROV1 ovarian, in the test on LOX IMVI melanoma, in the test on MDA-MB-231 breast and in the test with NCI-H226 lung was more than 100 µM each time. In the test on SF-539 CNS, this compound displayed a TGI of more than 100 µM.
For `CC[C@@]1(O)C(=O)OCc2c1cc1n(c2=O)Cc2c-1nc1ccccc1c2/C=N\NC(=O)C(N)CCSC` (some centres not stated), the TGI was 18.5 µM in the test with COLO 205 colon; 5.63 µM in the test on IGROV1 ovarian; more than 100 µM with K-562 leukemia; 0.0368 µM with LOX IMVI melanoma; more than 100 µM in the test on MDA-MB-231 breast; 1.11 µM with NCI-H226 lung.
On to `COc1ccc(Nc2ccc([N+](=O)[O-])cc2[N+](=O)[O-])cc1CN(CCCl)CCCl`, for which the GI50 in the test with COLO 205 colon was 1.8 µM; in the test with HT29 colon, 2.44 µM; in the test on K-562 leukemia, 2.47 µM; with LOX IMVI melanoma, 1.37 µM; in the test on MDA-MB-231 breast it was 2.69 µM; with NCI-H226 lung, 3.49 µM. In addition, the GI50 with SF-539 CNS is 1.85 µM. In addition, the TGI in the test with COLO 205 colon came out at 7.84 µM; in the test on HT29 colon, 9.59 µM; in the test with K-562 leukemia, 18.9 µM; in the test with LOX IMVI melanoma, 3.51 µM; in the test on MDA-MB-231 breast, 9.44 µM; in the test with NCI-H226 lung, 21.4 µM. Moreover, the TGI in the test on SF-539 CNS is 4.85 µM.
For `CN1CCN(c2ccc3c(c2)NCC(=O)N3)CC1`, the TGI in the test on COLO 205 colon, with HT29 colon, with IGROV1 ovarian, with K-562 leukemia, with LOX IMVI melanoma and in the test on MDA-MB-231 breast was more than 100 µM in each case. This compound came in with a TGI in the test on NCI-H226 lung of more than 100 µM.
As to `O=C(O)c1cc(CCc2cc(O)ccc2O)ccc1O`, the TGI in the test on COLO 205 colon, in the test on HT29 colon, with IGROV1 ovarian, in the test on K-562 leukemia, with LOX IMVI melanoma and in the test on NCI-H226 lung was more than 100 µM each time. Further, the TGI with SF-539 CNS was more than 100 µM.
`CCOC(=O)Cn1nnc2ccc(Nc3nc4ccccc4nc3-c3ccccc3)cc21`: the TGI in the test on COLO 205 colon, with HT29 colon, with IGROV1 ovarian, in the test with K-562 leukemia, in the test on LOX IMVI melanoma and in the test with NCI-H226 lung was more than 100 µM throughout. The TGI in the test on SF-539 CNS is more than 100 µM.
As to `O=C(c1ccco1)N(C(=O)N1CCN(c2ccccc2)CC1)S(=O)(=O)c1ccccc1`, the TGI in the test with COLO 205 colon was 82.4 µM; with HT29 colon, more than 100 µM; in the test on K-562 leukemia, more than 100 µM; in the test on MDA-MB-231 breast, more than 100 µM; in the test on NCI-H226 lung, more than 100 µM; in the test on SF-539 CNS, 41.1 µM.
Take `CNNC(=NS(=O)(=O)c1cc(C#N)c(NNC)cc1S)NNC`: the TGI with COLO 205 colon, in the test with HT29 colon, with IGROV1 ovarian, in the test with K-562 leukemia, with LOX IMVI melanoma and in the test on NCI-H226 lung was more than 10 µM in each case. Further, in the test on SF-539 CNS, the TGI was more than 10 µM.
For the compound `NC(Cc1ccc(S(=O)(=O)O)cc1)C(=O)NC(Cc1ccc(S(=O)(=O)O)cc1)C(=O)NC(Cc1ccc(S(=O)(=O)O)cc1)C(=O)NC(Cc1ccc(S(=O)(=O)O)cc1)C(=O)O` (configuration not stated), the TGI in the test with COLO 205 colon, in the test on HT29 colon, in the test with IGROV1 ovarian, in the test with LOX IMVI melanoma, with MDA-MB-231 breast and in the test with NCI-H226 lung was more than 100 µM in each case. In addition, the TGI in the test with SF-539 CNS is more than 100 µM.
On to `C1CSCCSCCCSCCSCCCSCCSCCCSCCSC1`, for which the TGI in the test with COLO 205 colon, in the test with HT29 colon, in the test with IGROV1 ovarian, in the test on K-562 leukemia, with LOX IMVI melanoma and with NCI-H226 lung was more than 100 µM in each case. For the same compound, the TGI with SF-539 CNS is more than 100 µM.
For `CCN(CCN(CC)C(=O)Nc1ccccc1)C(=O)Nc1ccccc1`, the TGI in the test with COLO 205 colon, with HT29 colon, in the test with IGROV1 ovarian, in the test with K-562 leukemia, in the test on LOX IMVI melanoma and in the test on MDA-MB-231 breast was more than 100 µM throughout. The TGI with NCI-H226 lung was more than 100 µM.
On to `C=C(C)[C@@H]1CC[C@]2(C(=O)OC)CC[C@]3(C)[C@H](CC[C@@H]4[C@@]5(C)CC[C@H](O)C(C)(C)[C@@H]5CC[C@]43C)[C@@H]12`, for which the TGI is 60 µM with HT29 colon; 42.2 µM in the test on IGROV1 ovarian; 47 µM in the test with K-562 leukemia; 34.6 µM in the test on LOX IMVI melanoma; more than 100 µM in the test with MDA-MB-231 breast; 44.4 µM in the test on NCI-H226 lung. The compound further returned a TGI in the test with SF-539 CNS of 34.9 µM.
Turning to `CCCn1c(=O)c(N2CCN(c3ccccc3)CC2)nc2sc3ccccc3c21`, the TGI with COLO 205 colon, in the test on HT29 colon, in the test on IGROV1 ovarian, in the test with LOX IMVI melanoma, with MDA-MB-231 breast and in the test with SF-539 CNS was more than 100 µM in each case.
As for `CC(C)(CCC(C)(C)N1OC1c1ccccc1)N1OC1c1ccccc1` (configuration not stated), the TGI was more than 100 µM in the test on COLO 205 colon; more than 100 µM in the test on HT29 colon; 37.7 µM in the test with K-562 leukemia; more than 100 µM with LOX IMVI melanoma; more than 100 µM in the test with MDA-MB-231 breast; more than 100 µM in the test with NCI-H226 lung. Also, the TGI with SF-539 CNS was more than 100 µM.
With `Nc1ccc(Nc2cc(=O)[nH]c(=O)[nH]2)cc1Cl`, the TGI in the test with COLO 205 colon, with HT29 colon, in the test with K-562 leukemia, with LOX IMVI melanoma, with MDA-MB-231 breast and in the test with NCI-H226 lung was more than 100 µM throughout. The same compound returned a TGI with SF-539 CNS of more than 100 µM.
